Reference: patent US9457007B2, “Prenylflavanone compounds for modulating diabetes” (NATUREWISE BIOTECH & MEDICALS CORPORATION, priority 2013, dated 2016)

Experiments:
Format in all cases: in vivo
[1] = tested on: STZ-induced diabetic mice; assay: Oral glucose tolerance test (OGTT); design: reduction of AUC compared with the STZ group / extent of reduction of AUC compared with the STZ group: concentration or dose not given beside the values
Method: (§1) The male FBV mice of 5 weeks old, commercially available from BioLASCO Co., Ilan, Taiwan, were acclimatized for 1 week, prior to administration of streptozotocin (STZ) at 40 mg/kg for 3 consecutive days. STZ was formulated with an aqueous solution of sodium citrate (pH 4.5, 73.5 mg/5 mL) on ice, and then 100 μL of the formulation was dosed by intraperitoneal injection. From day 2 in the 3 consecutive days, the mice were dosed with 5% (w/v) glucose water for 6 consecutive days. After allowing the mice to rest for 10 days, blood glucose levels were measured. After administration of STZ for 1 week, about 5 μL of blood was collected from each of the mice at the tail vein, and was assayed for blood glucose by a blood glucose monitor and chip (FORA, California, U.S.A.). After 1 week, blood glucose was detected once more, and whether blood glucose was smooth or not was evaluated prior to grouping. The values of blood glucose in all of the mice induced to suffer from diabetes were brought to fall within about 300±50 mg/dL.
After administration of the testing substance to the animals for 12 weeks, the OGTT test was performed for evaluation of secretion and effects of insulin. All of the mice in the test were administered with the testing substance and then fasted for 4 hours prior to blood sampling at the first point called point 0. Afterwards, the mice were fed by oral gavage with 200 μL glucose in water, equivalent to a dose of 1.0 g/kg. After administration, blood was collected for an assay of blood glucose at 15, 30, 60, 120 and 180 minutes, respectively. Therefore, a total of 6 points, including points at 0, 15, 30, 60, 120 and 180 minutes, were obtained. About 5 μL of blood was collected from each of the mice at the tail vein and was then assayed for blood glucose by the blood glucose monitor and chip (FORA, California, U.S.A.). The blood glucose values at the Y-axis were plotted against the time points at the X-axis. Each group was calculated for an area under curve for comparison. The efficacy in regulation of blood glucose was evaluated by the area showing a relationship between the testing substance and secretion and effects of insulin.

[2] = tested on: STZ-induced diabetic mice; assay: Feedstuff intake of the diabetic mice; settings: for feedstuff intake: propolins study
Method: as §1
(§2) An appropriate amount of the Taiwan Green Propolis alcohol extract was dissolved with 3 ml 95% alcohol and then uniformly mixed with 80 μL Tween 80 as a cosolvent; after concentrating under reduced pressure for removal of alcohol, it was dispersed into 16 ml water to give a liquid mixture of the Taiwan Green Propolis extract. This mixture was fed by 200 μL gavage into the diabetic mice designated as the Taiwan Green Propolis extract group.
(§3) An appropriate amount of propolins and its relevant derivatives, such as PPA, PPB, PPC, PPD, PPE, PPF, PPG, PPH, PPI or PPJ, was dissolved with 3 ml 95% alcohol and then uniformly mixed with 80 μL Tween 80; after concentrating under reduced pressure for removal of alcohol, it was uniformly dispersed into 16 ml water to give a liquid mixture of propolins. This mixture was fed by 200 μL gavage into the diabetic mice designated as the propolins and its relevant derivative group.
(§4) Sitagliptin (trade name: Januvia), commercially available from American Merck Co., was used as the DPP4 inhibitor. An appropriate amount of sitagliptin was dissolved in water to provide a final concentration allowing administration of the mice at a dose of 370 mg/kg. In the following example, Januvia was representative of the DPP4 inhibitors and acted as a positive control group for reference.
(§5) Tween 80 (80 μL) was mixed into 16 ml water to give a placebo, which was fed by 200 μL gavage into the STZ-induced diabetic mice or normal mice (i.e., the mice without induction for diabetes). Oral gavage was carried out once at a fixed time each day, and weight, feedstuff intake and water intake were measured weekly until tests were finished at 12-13 weeks.

[3] = tested on: STZ-induced diabetic mice; assay: Blood glucose in the STZ-induced diabetic mice; settings: propolins study; after administration for 8 weeks by gavage daily; PPC 9.0, PPD 6.75, PPF 4.5, PPG 4.5, Januvia 370 mg/kg/mouse
Method: as §1, with “mg/dL. […]” for “mg/dL.”
as §3, §4, §5

[4] = tested on: STZ-induced diabetic mice; assay: Analysis of glycosylated hemoglobin HbA1c; settings: TPE study, TPE 36 mg/kg, DPP4I 370 mg/kg
Method: STZ was formulated with an aqueous solution of sodium citrate (pH 4.5, 73.5 mg/5 mL) on ice, and then 100 μL of the formulation was dosed by intraperitoneal injection. […] The glycosylated hemoglobin was used for evaluation of the efficacy of the testing substance in the regulation of blood glucose. […] (New Taipei City, Taiwan) for analysis. The analysis may confer an average and standard deviation to each group of the mice. In the event the presence of the blood glucose modulation efficacy for the testing substance, this value would be lower; and in the event the absence of the blood glucose modulation efficacy for the testing substance, this value would be higher.

[5] = tested on: STZ-induced diabetic mice; assay: Water intake of the diabetic mice
Method: as §1, §2, §3, §4, §5

For `N[C@@H](CC(=O)N1CCn2c(nnc2C(F)(F)F)C1)Cc1cc(F)c(F)cc1F` [DPP4I, Sitagliptin, reference compound], the “blood glucose value in glucose tolerance test” value (shortened to “blood glucose value”) ([1]; TPE study, 0 point, glucose 1.0 g/kg oral, TPE 36 mg/kg, Januvia 370 mg/kg) was “about 260 mg/dL”, the “blood glucose value” value ([1]; TPE study, 30-minute time point after glucose in water) was “about 420 mg/dL” and the “blood glucose value” value ([1]; TPE study, 180-minute time point) was 240 mg/dL. For the same compound, the “reduction of AUC compared with the STZ group” value ([1]; TPE study, OGTT) was 66.1%, the “AUC value of blood glucose (integral area)” value ([1]; TPE study, OGTT 0-180 min, TPE 36 mg/kg, DPP4I 370 mg/kg) was “about 5.8×10^4” and the “value of blood glucose in glucose tolerance test” value ([1]; propolins study, 0 point, PPC 9.0, PPD 6.75, PPF 4.5, PPG 4.5, DPP4I 370 mg/kg/mouse) was “about 380 mg/dL”. The “value of blood glucose in glucose tolerance test” value ([1]; propolins study, 30-minute time point after glucose in water) was “about 450 mg/dL”, the “value of blood glucose in glucose tolerance test” value ([1]; propolins study, 120-minute time point) was “about 450 mg/dL” and the “value of blood glucose in glucose tolerance test” value ([1]; propolins study, 180-minute time point) was 400 mg/dL. The “AUC value for blood glucose (integral area)” value ([1]; propolins study, OGTT) was “about 7.2×10^4”, the “extent of reduction of AUC compared with the STZ group” value ([1]; propolins study, OGTT) was 42.0% and the “effect on food intake” value ([2]; TPE study, 13 weeks, TPE 36 mg/kg/day, Januvia 370 mg/kg) was “the test results were the same”. For the same compound, the feedstuff intake ([2]; at 1 week) was 5.5 g/mouse, the feedstuff intake ([2]; at 6 weeks) was 6.5 g/mouse and the feedstuff intake ([2]; at 8 weeks) was 6.4 g/mouse. The blood glucose [3] was 330 mg/dL, the “reduction of the generation of glycosylated hemoglobin” value ([4]; 13 weeks) was 55% and the “value of glycosylated hemoglobin” value ([4]; administration for 13 weeks) was “about 4.6%”. It also gave a water intake ([5]; TPE study, after 8 weeks, TPE 36 mg/kg/day, Januvia 370 mg/kg) of 5.4 mL/day/mouse, a water intake ([5]; TPE study, after 13 weeks, TPE 36 mg/kg/day, Januvia 370 mg/kg) of 3.8 mL/day/mouse and a water intake ([5]; TPE study, first week, TPE 36 mg/kg/day, Januvia 370 mg/kg) of 7.0 mL/day/mouse. For the same compound, the water intake ([5]; propolins study, at 1 week) was 8.0 mL/mouse, the water intake ([5]; propolins study, at 6 weeks) was 12.0 mL/mouse and the water intake ([5]; propolins study, at 8 weeks) was 12.5 mL/mouse.
